Consider nine compounds from US20240325393A1, “TOFACITINIB-CONTAINING ANHYDROUS ELASTOMER-BASED GEL FORMULATIONS” (VYNE THERAPEUTICS INC., priority 2020, published 2024).

≈ marks a conversion by molar mass, not a printed value. Where two headings read alike, the source gives them in different places.

Data set [1] can be described thus: AD murine model: body weight. How it is done:
Atopic Dermatitis is induced by once daily application for 38 days of 100 μl of 0.5% 2,4-dinitrochlorobenzene (DNCB) solution onto the shaved back skin of mice. Starting on day 32, test formulations are administered once daily onto the shaved back skin of mice in addition to DNCB. Several measurements are taken at different time points:
Daily from Day 32: Body weight, mortality, behaviour (scratching), general condition, AD index.

Data set [2] is described as follows: Skin penetration (IVPT), vertical diffusion cell, LC-MS/MS. Format: in vitro ADME, human. To be noted: for Dermis concentration, μg/g Based on the Mean (n = 5) / Epidermis concentration, μg/g Based on the Mean (n = 5): estimated, skin 500 μm; for Dermis concentration, μg/g Based on the Mean (n = 5) / Epidermis concentration, μg/g Based on the Mean (n = 5) / estimated concentration of active in epidermis: epidermis assumed 80 μm, density 1.0 g/cm^3; for fingolimod concentration in receptor fluid: quantitation limit of LC-MS method. The method, then:
The skin is dosed with approx. 6 mg of formulation to achieve a dose of ˜10 mg/cm2. Receptor solution is collected at pre-determined intervals over the course of 24 hours and analyzed using a liquid chromatography with tandem mass spectrometry (LC-MS/MS) analytical method.
Following 24 hours, the residual formulation is removed from the surface of the skin. The skin surface is tape-stripped up to five times to remove residual formulation and the top of the skin surface layers (Stratum Corneum). The epidermis is then heat-separated from the dermis. The active agent is extracted from the skin layers and the amount of active agent delivered to the epidermis and dermis is then determined by LC-MS/MS.

Another data set is described as follows: in vivo. The following applies: both, Gottingen, minipig, plasma (tofacitinib); whole blood (fingolimod), topical.
The nature of data set [3]: Chemical stability of topical formulations (HPLC). Format: physicochemical. How it is done:
Where another active agent such as fingolimod is present in the formulations the samples are analysed for that active agent and its degradation products by HPLC. […] The gradient elution is employed.

Data set [4] can be described thus: Visual solubility determination of Fingolimod free base in organic solvents at RT. Format: physicochemical. The following applies: for solubility: organic solvent or mixture, thermodynamic from solid, visual determination at RT. How it is done: A visual solubility evaluation of Fingolimod free base was performed.
A short description of data set [5]: Toxicokinetic / pK evaluation in Gottingen Minipigs (plasma tofacitinib, whole blood fingolimod and fingolimod phosphate). To be noted: minipig, topical.
Protocol: (§1) The animals are not fasted prior to blood collection, with the exception of the intervals that coincide with fasting for clinical pathology collections.
(§2) If necessary, the samples are frozen on dry ice prior to being placed in the freezer. […] Samples are stored at the bioanalytical laboratories in a freezer set to maintain −80±10° C. until analysis.
(§3) Samples designated for analysis of fingolimod and fingolimod phosphate are mixed gently, lysed with an equal volume of deionized water, vortexed for approximately 1 minute, divided into two approximately equal aliquots, transferred to uniquely labeled polypropylene tubes and frozen in a freezer set to maintain −70° C. If necessary, the samples are frozen on dry ice prior to being placed in the freezer. The samples for fingolimod analysis are shipped with a temperature monitoring device to bioanalytical laboratories. Samples are stored at the bioanalytical laboratories in a freezer set to maintain −75±15° C. until analysis.
(§4) Whole blood is analyzed for concentration of fingolimod and fingolimod phosphate using a validated analytical procedure for the simultaneous quantitation of both analytes.
(§5) TK samples collected on Days 49 and 56 from recovery animals in Groups 1, 2, 3, 5, and 6 are also analyzed. Statistical analyses including regression analysis and descriptive statistics including arithmetic means and standard deviations, accuracy, and precision are performed. Incurred sample reanalysis may be performed as part of this study according to the Test Site SOPs.
(§6) A non-compartmental approach consistent with the dermal route of administration is used for parameter estimation.
(§7) Partial AUCs (between 2 defined sample times), and corresponding dose-normalized values, are derived and reported to aid interpretation. Descriptive statistics (e.g., number, arithmetic mean, median, standard deviation, standard error, coefficient of variation) are reported as deemed appropriate, as well as ratios for appropriate grouping and sorting variables (e.g. AUC and/or Cmax female/male ratios, AUC and/or Cmax metabolite/parent drug ratios).
Data set [6] has as its system S1P receptors (S1P1 and S1P3-5). To be noted: cited from earlier work.
The subject of data set [7] is Atopic Dermatitis induced by 2,4-dinitrochlorobenzene (DNCB). Description: AD murine model: AD index (ADI, mADI), behaviour, histological analysis of skin. Format: in vivo. To be noted: DNCB induced mice, Example 41 (combination study).
Description: As used herein, “Atopic Dermatitis Index (ADI)” refers to the sum of the scores of four factors consisting of: (1) the presence of erythema/haemorrhage on the skin, (2) edema/thickening of the skin, (3) excoriation/erosion of the skin and (4) dryness/peeling of the skin at the area of induction of atopic dermatitis. The sum of the scores of these factors provides a combined ADI, on a scale of 0 to 12. […]
The presence of erythema/haemorrhage is scored based on the following scoring grid: • 0=no or no more erythema/haemorrhage on the skin, • 1=weak erythema/haemorrhage on the skin, • 2=moderate erythema/haemorrhage on the skin, • 3=severe erythema/haemorrhage on the skin.
The presence of edema/thickening is scored based on the following scoring grid: • 0=no or no more edema/thickening of the skin, • 1=weak edema/thickening of the skin, • 2=moderate edema/thickening of the skin, • 3=severe edema/thickening of the skin.
The presence of excoriation/erosion is scored based on the following scoring grid: • 0=no or no more excoriation/erosion of the skin, • 1=weak excoriation/erosion of the skin, • 2=moderate excoriation/erosion of the skin, • 3=severe excoriation/erosion of the skin. […]
Data set [8] is described as follows: Interfacial tension predictions (Washburn method, Fowkes theory). Format: physicochemical. How it is done:
Based on the contact angle data, the surface energy is calculated and polar and dispersive components of surface energy as well as surface polarity are estimated.
A surface tension study was performed to characterize active agent samples, various oils and specific formulations for Surface energy with polar and dispersive components. The Washburn method was used to determine contact angles and the Fowkes theory was used to calculate surface energies.
Surface tension measurements were performed on several oils and the following formulations: OT1.0016P (elastomer-MCT oil-based formulation), OT1.0021P (elastomer-based formulation comprising a combination of MCT oil, squalane and isopropyl isostearate) and OT1.0022P (elastomer-based formulation comprising a combination of MCT oil, squalane and oleyl alcohol).

In data set [9] the test system is Hartley-derived albino guinea pigs.
The mark [10] stands for this setting: formulation with 1.0% tofacitinib citrate and […] fingolimod hydrochloride.
[11] abbreviates: 2 months at 40° C., formulation of Table 38.
[12] abbreviates: 2 months at 50° C., formulation of Table 38.
The mark [13] stands for this setting: 3 weeks at 5° C., formulation of Table 38.
Setting [14] is: 3 weeks at 50° C., formulation of Table 38.
Setting [15] is: Dermis, formulation of Table 42 (fingolimod HCl […]).
Where [16] appears, read: Dermis, formulation of Table 43a.
[17] abbreviates: Epidermis, formulation of Table 43a.
[18] abbreviates: Receptor fluid, formulation of Table 42 (fingolimod HCl […]).
[19] abbreviates: Receptor fluid, formulation of Table 43a.

Protocol for in vivo: as §1, §2, §3, §4, §5, §6, §7

With Triamcinolone, in data set [1] (mouse, in vivo), the “Body weight D39 Mean” value was 17.7 g; the “Body weight D39 mean” value turned out to be 17.1 g; the “Mean Body Weight Change Day 39 − Day 32, Study 1” value is recorded as −2.80; the “Mean Body Weight Change Day 39 − Day 32, Study 2” value is −2.06. Moreover, in data set [1] (mouse, in vivo), the “Mean Body Weight Change d 39 − d 32” value was −2.80.

For orientation: Cmax means the maximum level reached in the sampled fluid or tissue. Consider `C[C@@H]1CCN(C(=O)CC#N)C[C@@H]1N(C)c1ncnc2[nH]ccc12` [tofacitinib], for which the “Dermis concentration, μg/g Based on the Mean (n = 5)” value in data set [2] (formulation of Table 43a) is 34.9 µg/g. In data set [2] (formulation of Table 43a), the “Epidermis concentration, μg/g Based on the Mean (n = 5)” value is 364.3 µg/g. Further, the “estimated concentration of active in dermis” value in [2] (setting [10]) was 34.9 µg/g. In addition, the “estimated concentration of active in epidermis” value in data set [2] (setting [10]) was 364.3 µg/g. The same compound showed a Cmax in the data set “in vivo” of 1.56 ng/mL. The “Assay, % LC” value is reported as 99.2 % LC in data set [3] (setting [11]), 98.6 % LC in data set [3] (setting [12]), 99.3 % LC in data set [3] (setting [13]) and 99.1 % LC in [3] (setting [14]).

For orientation: solubility means the dissolved amount per volume that the medium holds. By AUC(0-t) is commonly meant the area under the concentration-time curve up to a stated or last time point. High values mean more exposure, low ones less exposure. For `CCCCCCCCc1ccc(CCC(N)(CO)CO)cc1` [fingolimod, 2-amino-2-[2-(4-octylphenyl)ethyl]propane-1,3-diol], the “Amount of Fingolimod recovered, % applied dose, Mean (n = 5)” value was 2.59% in data set [2] (setting [15]); 1.44% in data set [2] (setting [16]); 1.98% in data set [2] (Epidermis, formulation of Table 42 (fingolimod HCl […])); 1.59% in [2] (setting [17]); “ND (ND—not detected (below LOQ of 0.25 ng/mL))” in [2] (setting [18]); “ND (ND—not detected (below LOQ of 0.25 ng/ml))” in data set [2] (setting [19]). In addition, the “Amount of Fingolimod recovered, ng, Mean (n = 5)” value is listed as 49.16 ng in [2] (setting [15]); 14.82 ng in data set [2] (setting [16]); 16.21 ng in data set [2] (setting [17]); “ND (ND—not detected (below LOQ of 0.25 ng/mL))” in [2] (setting [18]); “ND (ND—not detected (below LOQ of 0.25 ng/ml))” in [2] (setting [19]). Moreover, the “Dermis concentration, μg/g Based on the Mean (n = 5)” value in [2] (formulation of Table 43a) is 0.6 µg/g. Besides, in data set [2] (formulation of Table 43a), the “Epidermis concentration, μg/g Based on the Mean (n = 5)” value is 3.4 µg/g. Further, the “fingolimod concentration in receptor fluid” value in data set [2] (formulation containing […] of fingolimod hydrochloride) and in [2] (setting [10]) was less than 0.25 ng/mL in each case. Further, the “estimated concentration of active in dermis” value in data set [2] (setting [10]) was 0.6 µg/mL. Further, the “estimated concentration of active in epidermis” value in data set [2] (setting [10]) is 3.4 µg/g. Moreover, the visual solubility entry in data set [4] (alcohols, RT) is “very good solubility”; in [4] (most of organic solvents tested, RT), “good solubility”; in data set [4] (water, toluene, diisopropyloxide and methyl ethyl ketone), “very low soluble”. In addition, the solubility in data set [4] (2-Methyl tetrahydrofurane) was 10000 µg/mL (≈ 32.5 mM); in [4] (Acetone) it was 5000 µg/mL (≈ 16.3 mM); in data set [4] (Acetonitrile), 1800 µg/mL (≈ 5.85 mM); in data set [4] (Dichloromethane), 6700 µg/mL (≈ 21.8 mM); in data set [4] (Ethyl acetate), 4000 µg/mL (≈ 13 mM); in data set [4] (Isopropanol) it was 20000 µg/mL (≈ 65 mM). In addition, the solubility in data set [4] (Methyl ethyl ketone) came to 1200 µg/mL (≈ 3.9 mM); in [4] (Methyl isobutyl ketone), 5000 µg/mL (≈ 16.3 mM); in data set [4] (tert-Butyl methyl ether), 2000 µg/mL (≈ 6.5 mM). Also, the “Assay, % LC” value in [3] (setting [11]) was determined as 97.2 % LC; in data set [3] (setting [12]) it was 95.0 % LC; in data set [3] (setting [13]), 100.3 % LC; in data set [3] (3 weeks at 40° C., formulation of Table 38), 99.9 % LC; in data set [3] (setting [14]) it was 94.1 % LC; in data set [3] (Initial, elastomer-based formulation of Table 38 (tofacitinib citrate 1.0%, fingolimod HCl 0.01%)) it was 99.9 % LC. The compound also came in with an AUC(0-t) in data set [5] of 3.73 ng·h/mL. The compound also had a Cmax in data set [5] of 0.467 ng/mL.

For the compound fingolimod-phosphate, the “affinity to four of the five S1P receptors (S1P1 and S1P3-5)” value in [6] was 0.3 to 3.1 nM.

In the case of `CC1(C)O[C@@H]2C[C@H]3[C@@H]4CCC5=CC(=O)C=C[C@]5(C)[C@@]4(F)[C@@H](O)C[C@]3(C)[C@]2(C(=O)CO)O1` [triamcinolone acetonide], the “Mean ADI values (AD Index) D 39” value in data set [7] amounted to 0.88.

For the compound `C[C@@H]1CCN(C(=O)CC#N)C[C@@H]1N(C)c1ncnc2[nH]ccc12.O=C(O)CC(O)(CC(=O)O)C(=O)O` [Tofacitinib Citrate non-micronized Lot TOF0000004], the results for the “Interfacial Tension” value in data set [8] (with OT1.0016P), in data set [8] (with OT1.0021P) and in data set [8] (with Stainless Steel) were 1.88 mN/m, 1.45 mN/m and 1.62 mN/m, respectively.

Turning to `O=[N+]([O-])c1ccc(Cl)c([N+](=O)[O-])c1` [DNCB, 2,4-dinitrochlorobenzene], the “Group mean dermal scores, test animals” value in [9] (challenge with 0.05% w/v DNCB in acetone and ethanol, control animals 0.25) is given as 0.6; in data set [9] (challenge with 0.1% w/v DNCB in acetone and ethanol, control animals 0.375), 1.45.

Take `C[C@@H]1CCN(C(=O)CC#N)C[C@@H]1N(C)c1ncnc2[nH]ccc12.O=C(O)CC(O)(CC(=O)O)C(=O)O` [Tofacitinib Citrate micronized Lot TOF0000004-04]: the “Interfacial Tension” value in data set [8] (with OT1.0016P) is recorded as 2.72 mN/m; in data set [8] (with OT1.0021P), 2.17 mN/m; in [8] (with OT1.0022P) it was 1.95 mN/m; in [8] (with Stainless Steel), 2.50 mN/m.

For `CC1(C)O[C@@H]2C[C@H]3[C@@H]4CCC5=CC(=O)C=C[C@]5(C)[C@@]4(F)[C@@H](O)C[C@]3(C)[C@]2(C(=O)CO)O1` [Triamcinolone acetonide], the “Mean body weights values: Weight D 32” value in data set [1] (DNCB induced mice, Example 41, D 32 (treatment start)) is listed as 18.31. The “Mean body weights values: Weight D 39” value in [1] (DNCB induced mice, Example 41, D 39) is listed as 15.66. In [1] (DNCB induced mice, Example 41, (+) weight gain, (−) weight loss), the “Mean Body Weight Change d 39 − d 32” value is on record as −2.65.
